From patent publication US20120178786A9, “Use of tetramic acid derivatives for controlling pests by drenching, drip application, or dip application” (priority 2006, published 2012)

Tested on: Coccus viridis
Test: Example 11: drench of gardenia plants, Henderson-Tilton efficacy against nymphs
Type: in vivo
Conditions: 48 mg active substance/1 potting compost, 20 G
Method: Gardenia plants cv. […] The greenhouse temperature is 27° C. The test is evaluated 7, 15, 21 and 35 days after the treatment by determining the activity against nymphs on the leaves with the aid of the Henderson-Tilton method.

Compound: CN/C(=N/CC1CCOC1)N[N+](=O)[O-] (stereo not shown) [Dinotefuran, dinotefuran]
- Henderson-Tilton efficacy (%) against Coccus viridis (7 d after treatment): 0%
- Henderson-Tilton efficacy (%) against Coccus viridis (15 d after treatment): 57%
- Henderson-Tilton efficacy (%) against Coccus viridis (21 d after treatment): 85%
- Henderson-Tilton efficacy (%) against Coccus viridis (35 d after treatment): 91%
